Assay results reported in PubChem BioAssay (NCI).
“And” between values parts separate entries of the source, which are not always exact repeats. Equal values may be shown once.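 Tested at 5 concentrations; 48 h exposure; 96-well plates; endpoints linearly interpolated, else capped at highest concentration. At the GI50, growth is halved. TGI marks complete inhibition of growth.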

Columns and labels:
Assay in all cases: NCI anticancer screen, dose series, 48 h
A498 renal = system: A498 renal
BT-549 breast = system: BT-549 breast
EKVX NSCLC = system: EKVX NSCLC
HCC-2998 colon = system: HCC-2998 colon
MDA-MB-231 breast = system: MDA-MB-231 breast
NCI-H226 lung = system: NCI-H226 lung
NCI/ADR-RES ovarian = system: NCI/ADR-RES ovarian
OVCAR-4 ovarian = system: OVCAR-4 ovarian
SNB-75 CNS = system: SNB-75 CNS
SR leukemia = system: SR leukemia

O=C(NCCCNC(=O)OCc1ccc2c(Br)cc(Br)c(O)c2n1)OCc1ccc2c(Br)cc(Br)c(O)c2n1
GI50 (A498 renal): > 100 µM
TGI (A498 renal): > 100 µM
GI50 (BT-549 breast): > 100 µM
TGI (BT-549 breast): > 100 µM
GI50 (EKVX NSCLC): > 100 µM
TGI (EKVX NSCLC): > 100 µM
GI50 (HCC-2998 colon): > 100 µM
TGI (HCC-2998 colon): > 100 µM
GI50 (MDA-MB-231 breast): > 100 µM
TGI (MDA-MB-231 breast): > 100 µM
GI50 (NCI-H226 lung): > 100 µM
TGI (NCI-H226 lung): > 100 µM
GI50 (NCI/ADR-RES ovarian): > 100 µM
TGI (NCI/ADR-RES ovarian): > 100 µM
GI50 (OVCAR-4 ovarian): > 100 µM
TGI (OVCAR-4 ovarian): > 100 µM
GI50 (SNB-75 CNS): > 100 µM
TGI (SNB-75 CNS): > 100 µM
GI50 (SR leukemia): > 100 µM
TGI (SR leukemia): > 100 µM

COc1cccc(Cn2cc3c(c2)-c2oncc2CC3)c1
GI50 (A498 renal): 0.239 µM
TGI (A498 renal): 1.19 µM
GI50 (BT-549 breast): 6.85 µM
TGI (BT-549 breast): > 100 µM
GI50 (EKVX NSCLC): 0.508 µM
TGI (EKVX NSCLC): > 77 µM
GI50 (HCC-2998 colon): 0.442 µM
TGI (HCC-2998 colon): 7.98 µM
GI50 (MDA-MB-231 breast): 0.636 µM
TGI (MDA-MB-231 breast): 96.8 µM
GI50 (NCI-H226 lung): 2.72 µM
TGI (NCI-H226 lung): > 100 µM
GI50 (NCI/ADR-RES ovarian): 0.317 µM
GI50 (OVCAR-4 ovarian): 1.3 µM
TGI (OVCAR-4 ovarian): > 85.4 µM
GI50 (SNB-75 CNS): 0.211 µM
TGI (SNB-75 CNS): 0.895 µM
GI50 (SR leukemia): 0.312 µM
TGI (SR leukemia): 6.03 µM

O=C(Nc1cccc2cccnc12)c1ccc(N2C(=O)[C@@H]3[C@H](C2=O)[C@@H]2C=C[C@H]3C2)cc1
GI50 (A498 renal): 14.5 µM
TGI (A498 renal): > 93.2 µM
GI50 (BT-549 breast): 16.3 µM
TGI (BT-549 breast): > 83.3 µM
GI50 (EKVX NSCLC): 32.2 µM
TGI (EKVX NSCLC): > 100 µM
GI50 (HCC-2998 colon): 35.4 µM
TGI (HCC-2998 colon): > 100 µM
GI50 (MDA-MB-231 breast): 33.2 µM
TGI (MDA-MB-231 breast): > 100 µM
GI50 (NCI-H226 lung): 19.8 µM
TGI (NCI-H226 lung): > 88.6 µM
GI50 (NCI/ADR-RES ovarian): 17.6 µM
TGI (NCI/ADR-RES ovarian): 81.2 µM
GI50 (OVCAR-4 ovarian): 3.26 µM
TGI (OVCAR-4 ovarian): 48.6 µM
GI50 (SNB-75 CNS): > 44.2 µM
TGI (SNB-75 CNS): > 100 µM
GI50 (SR leukemia): 30 µM
TGI (SR leukemia): > 100 µM

O=C(O)c1ccc(S(=O)(=O)N=Nc2c(O)[nH]c3ccccc23)cc1
TGI (A498 renal): > 100 µM
TGI (BT-549 breast): > 100 µM
TGI (EKVX NSCLC): > 100 µM
TGI (HCC-2998 colon): > 100 µM
TGI (MDA-MB-231 breast): > 100 µM
TGI (NCI-H226 lung): > 100 µM
TGI (NCI/ADR-RES ovarian): > 100 µM
TGI (OVCAR-4 ovarian): > 100 µM
TGI (SNB-75 CNS): > 100 µM
TGI (SR leukemia): > 100 µM

BrC(Br)(Br)c1cnc2ccccc2n1
GI50 (A498 renal): 9 µM
TGI (A498 renal): 21.2 µM
GI50 (BT-549 breast): 2.4 µM
TGI (BT-549 breast): 6.84 µM
GI50 (EKVX NSCLC): 2.99 µM
TGI (EKVX NSCLC): 13.2 µM
GI50 (HCC-2998 colon): 1.67 µM
TGI (HCC-2998 colon): 3.6 µM
GI50 (MDA-MB-231 breast): 1.39 µM
TGI (MDA-MB-231 breast): 3.22 µM
GI50 (NCI-H226 lung): 3.91 µM
TGI (NCI-H226 lung): 8.38 µM
GI50 (NCI/ADR-RES ovarian): 2.3 µM
TGI (NCI/ADR-RES ovarian): 7.36 µM
GI50 (OVCAR-4 ovarian): 1.46 µM
TGI (OVCAR-4 ovarian): 3.98 µM
GI50 (SNB-75 CNS): 2.94 µM
TGI (SNB-75 CNS): 13.2 µM
GI50 (SR leukemia): 1.79 µM
TGI (SR leukemia): 5.81 µM

COc1cccc2c1cc([N+](=O)[O-])c1c(C(=O)O)cc3c(c12)OCO3
GI50 (A498 renal): 16 µM
TGI (A498 renal): 32.9 µM and 83.4 µM
TGI (BT-549 breast): > 100 µM
GI50 (EKVX NSCLC): 26.6 µM
TGI (EKVX NSCLC): 91.7 µM and > 100 µM
GI50 (HCC-2998 colon): 3.91 µM
TGI (HCC-2998 colon): 18.9 µM and 9.62 µM
GI50 (MDA-MB-231 breast): 59.9 µM
TGI (MDA-MB-231 breast): > 100 µM
GI50 (NCI-H226 lung): 20 µM
TGI (NCI-H226 lung): 48.4 µM and > 78.3 µM
GI50 (NCI/ADR-RES ovarian): 42.8 µM
TGI (NCI/ADR-RES ovarian): > 100 µM
GI50 (OVCAR-4 ovarian): 83.4 µM
TGI (OVCAR-4 ovarian): > 100 µM
GI50 (SNB-75 CNS): 36 µM
TGI (SNB-75 CNS): > 100 µM
GI50 (SR leukemia): 24.9 µM
TGI (SR leukemia): 75.7 µM and 78.9 µM

CCCCCCCCCCCCOC1C(C(COC2OC(C(O)CN3CCCCC3)C3OC(C)(C)OC23)NC(=O)Nc2ccccc2)OC2OC(C)(C)OC21 (stereo not drawn)
GI50 (A498 renal): 16.9 µM
TGI (A498 renal): 32.7 µM
GI50 (BT-549 breast): 14.9 µM
TGI (BT-549 breast): 29.5 µM
GI50 (EKVX NSCLC): 14.4 µM
TGI (EKVX NSCLC): 30.2 µM
GI50 (HCC-2998 colon): 4.61 µM
TGI (HCC-2998 colon): 9.97 µM
GI50 (MDA-MB-231 breast): 12.8 µM
TGI (MDA-MB-231 breast): 27.4 µM
GI50 (NCI-H226 lung): 17 µM
TGI (NCI-H226 lung): 38.1 µM
GI50 (NCI/ADR-RES ovarian): 15.3 µM
TGI (NCI/ADR-RES ovarian): 33.3 µM
GI50 (OVCAR-4 ovarian): 9.48 µM
TGI (OVCAR-4 ovarian): 27.3 µM
GI50 (SNB-75 CNS): 13.6 µM
TGI (SNB-75 CNS): 29.8 µM
GI50 (SR leukemia): 1.91 µM
TGI (SR leukemia): 4.3 µM

CCN(Cc1nc2cc(C(F)(F)F)ccc2nc1-c1ccccc1)c1ccc(OC)c(OC)c1
GI50 (A498 renal): 4.42 µM
TGI (A498 renal): 20.7 µM
GI50 (BT-549 breast): 13.4 µM
TGI (BT-549 breast): 31.7 µM
GI50 (EKVX NSCLC): 20.1 µM
TGI (EKVX NSCLC): 73.6 µM
GI50 (HCC-2998 colon): 16.7 µM
TGI (HCC-2998 colon): 34.4 µM
GI50 (MDA-MB-231 breast): 12.7 µM
TGI (MDA-MB-231 breast): 29.2 µM
GI50 (NCI-H226 lung): 13.2 µM
TGI (NCI-H226 lung): 29 µM
GI50 (NCI/ADR-RES ovarian): 29.2 µM
TGI (NCI/ADR-RES ovarian): > 100 µM
GI50 (OVCAR-4 ovarian): 41.2 µM
TGI (OVCAR-4 ovarian): > 100 µM
GI50 (SNB-75 CNS): 24.5 µM
TGI (SNB-75 CNS): 71.7 µM
GI50 (SR leukemia): 7.61 µM
TGI (SR leukemia): 31.2 µM

CCCC[P+](c1ccccc1)(c1ccccc1)c1ccccc1
GI50 (A498 renal): 3.46 µM
TGI (A498 renal): 29.5 µM
GI50 (BT-549 breast): 3.32 µM
TGI (BT-549 breast): 74.7 µM
GI50 (EKVX NSCLC): 1 µM
TGI (EKVX NSCLC): > 100 µM
GI50 (HCC-2998 colon): 1.42 µM
TGI (HCC-2998 colon): > 100 µM
GI50 (MDA-MB-231 breast): 9.13 µM
TGI (MDA-MB-231 breast): > 100 µM
GI50 (NCI-H226 lung): 5.34 µM
TGI (NCI-H226 lung): > 100 µM
GI50 (NCI/ADR-RES ovarian): > 100 µM
TGI (NCI/ADR-RES ovarian): > 100 µM
GI50 (OVCAR-4 ovarian): 2.43 µM
TGI (OVCAR-4 ovarian): > 100 µM
GI50 (SNB-75 CNS): 4.95 µM
TGI (SNB-75 CNS): > 100 µM
GI50 (SR leukemia): 1.96 µM
TGI (SR leukemia): > 100 µM

CN(C)CCOc1nc2c3cccnc3cc(-c3cccc(Cl)c3)c2c2ncccc12
GI50 (A498 renal): 2.6 µM
TGI (A498 renal): 10.8 µM
GI50 (BT-549 breast): 6.11 µM
TGI (BT-549 breast): 19.9 µM
GI50 (EKVX NSCLC): 1.7 µM
TGI (EKVX NSCLC): 4.62 µM
GI50 (HCC-2998 colon): 1.43 µM
TGI (HCC-2998 colon): 2.93 µM
GI50 (MDA-MB-231 breast): 1.5 µM
TGI (MDA-MB-231 breast): 3.53 µM
GI50 (NCI-H226 lung): 6.09 µM
TGI (NCI-H226 lung): 24.6 µM
GI50 (NCI/ADR-RES ovarian): 1.42 µM
TGI (NCI/ADR-RES ovarian): 2.82 µM
GI50 (OVCAR-4 ovarian): 1.3 µM
TGI (OVCAR-4 ovarian): 3.19 µM
GI50 (SNB-75 CNS): 1.23 µM
TGI (SNB-75 CNS): 7.78 µM
GI50 (SR leukemia): 0.371 µM
TGI (SR leukemia): 2.15 µM

CS(=O)(=O)OCCN(CCOS(C)(=O)=O)c1ccc(C=Nc2ccc3oc(=O)ccc3c2)cc1
TGI (A498 renal): 4.67 µM
TGI (BT-549 breast): 45.7 µM
TGI (EKVX NSCLC): 36.5 µM
TGI (HCC-2998 colon): 7.77 µM
TGI (MDA-MB-231 breast): 80.8 µM
TGI (NCI-H226 lung): 21.9 µM
TGI (NCI/ADR-RES ovarian): 62.5 µM
TGI (OVCAR-4 ovarian): 41 µM
TGI (SNB-75 CNS): 26.1 µM
TGI (SR leukemia): 40.1 µM

CCn1c(-c2nonc2N)nc2c(C#CC(C)(C)O)nc(O[C@@H](CN)c3ccccc3)cc21
GI50 (A498 renal): 0.00553 µM
TGI (A498 renal): 0.171 µM
GI50 (BT-549 breast): 0.356 µM
TGI (BT-549 breast): 1.9 µM
GI50 (EKVX NSCLC): 0.982 µM
TGI (EKVX NSCLC): 9.38 µM
GI50 (HCC-2998 colon): 0.0478 µM
TGI (HCC-2998 colon): 0.858 µM
GI50 (MDA-MB-231 breast): 0.528 µM
TGI (MDA-MB-231 breast): 2.65 µM
GI50 (NCI-H226 lung): 0.624 µM
TGI (NCI-H226 lung): 1.57 µM
GI50 (NCI/ADR-RES ovarian): 6.38 µM
TGI (NCI/ADR-RES ovarian): 25 µM
GI50 (OVCAR-4 ovarian): 0.447 µM
TGI (OVCAR-4 ovarian): 4.63 µM
GI50 (SNB-75 CNS): 0.122 µM
TGI (SNB-75 CNS): 4.06 µM
GI50 (SR leukemia): 0.099 µM
TGI (SR leukemia): 3.59 µM
